Laboratory results from patent US20220411381A1, “PYRIMIDINEDIONE DERIVATIVES” (Bayer Aktiengesellschaft, priority 2019, published 2022).
Like-named read-outs stand apart in the source and are kept apart here.

What was measured:
MDA-MB231 cells = assay: In vitro assay 2: BCAT cellular assay, leucine in medium of MDA-MB231 cells; type: cell-based; conditions: 24 hours incubation, leucine level in medium (LeuDH/diaphorase/resazurin readout), read-out: MDAMB-231 IC50
Description: In Vitro Assay 2: BCAT Cellular Assay
Levels of leucine were measured in medium of different tumor cell lines. The enzyme BOAT (Branched chain amino acid transferase) catalyzes the consumption of leucine.
Cells (U87-MG and MDA-MB231 from ATCC) were grown in Dulbecco's Modified Eagle Medium (DMEM) containing 10% fetal calf serum. They were harvested by trypsin and seeded into 96-well plates. Cells were incubated overnight at 37° C. in an atmosphere containing 5% carbon dioxide. The next day test compounds were added to each cell well. The final concentration of dimethylsulfoxide (DMSO) was 0.1% and DMSO controls were included. The plates were then placed in an incubator for 24 hours.
Leucine was measured in an enzymatic readout with leucine dehydrogenase (LeuDH) and diaphorase. Medium is deproteinized with perchloric acid. 30 μl of 1 M aqueous perchloric acid was added to each well and the plates were centrifuged.

[1] = molecular target: T1, recombinant human BCAT2 enzyme (Homo sapiens, UniProt O15382); assay: In vitro assay 1b: BCAT2 biochemical assay (coupled LeuDH/NADH fluorescence readout); conditions: recombinant human BCAT2 […], 32° C., 100 μM leucine, 50 μM α-ketoglutarate, NADH fluorescence over 90 min; read-out: BCAT2 IC50; note: recombinant human BCAT2 0.75 nM
T1 construct: purchased ATGen (South Korea) ATGP1523
T1 sequence (O15382 28-392): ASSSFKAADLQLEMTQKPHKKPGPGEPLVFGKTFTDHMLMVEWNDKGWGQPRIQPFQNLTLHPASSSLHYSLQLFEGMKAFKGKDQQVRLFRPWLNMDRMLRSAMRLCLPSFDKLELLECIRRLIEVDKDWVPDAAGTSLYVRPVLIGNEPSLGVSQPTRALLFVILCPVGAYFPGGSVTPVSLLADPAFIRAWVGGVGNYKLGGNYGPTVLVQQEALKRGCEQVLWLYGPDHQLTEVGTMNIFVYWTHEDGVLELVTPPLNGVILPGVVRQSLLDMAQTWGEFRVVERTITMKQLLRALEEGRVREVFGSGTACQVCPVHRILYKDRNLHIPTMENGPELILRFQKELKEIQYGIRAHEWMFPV
Description: (§1) In Vitro Assay 1a and 1b: BCAT1 and BCAT2 Biochemical Assay
(§2) BOAT (Branched chain amino acid transferase) catalyzes transamination of the branched chain amino acid leucine to α-ketoisocaproate (KIC). The BOAT enzymatic reaction was measured in a coupled readout with leucine dehydrogenase (LeuDH) which catalyzes the Nicotinamide adenine dinucleotide (NADH) dependent reduction of KIC to leucine. NADH consumption is measured by fluorescent readout.
(§3) The biochemical reactions were performed at 32° C. in 384-well plates using a reaction volume of 51 μl and the following assay buffer conditions: 50 mM HEPES (2-[4-(2-hydroxyethyl)piperazin-1-yl]ethanesulfonic acid) pH 8.0, 50 mM aqueous solution of ammonium sulfate, 1 mM ethylenediaminetetraacetic acid, 2 mM dithiothreitol, 0.01% bovine serum albumine, 0.005% Brij 35 detergent, 0.5 μM PLP (pyridoxalphosphate), 10 μM NADH, and 50 μM α-ketoglutarate), and 100 μM leucine. […] Test compounds were used in a concentration range between 0.005 and 30 μM. The final DMSO concentration was 2%.
(§4) The reaction was initiated by addition of substrates (Leucine, α-KG, NADH).

[2] = molecular target: T2, recombinant human BCAT1 enzyme (Homo sapiens, UniProt P54687); assay: In vitro assay 1a: BCAT1 biochemical assay (coupled LeuDH/NADH fluorescence readout)
T2 construct: purchased ATGen (South Korea) ATGP1479
T2 sequence (P54687 1-386): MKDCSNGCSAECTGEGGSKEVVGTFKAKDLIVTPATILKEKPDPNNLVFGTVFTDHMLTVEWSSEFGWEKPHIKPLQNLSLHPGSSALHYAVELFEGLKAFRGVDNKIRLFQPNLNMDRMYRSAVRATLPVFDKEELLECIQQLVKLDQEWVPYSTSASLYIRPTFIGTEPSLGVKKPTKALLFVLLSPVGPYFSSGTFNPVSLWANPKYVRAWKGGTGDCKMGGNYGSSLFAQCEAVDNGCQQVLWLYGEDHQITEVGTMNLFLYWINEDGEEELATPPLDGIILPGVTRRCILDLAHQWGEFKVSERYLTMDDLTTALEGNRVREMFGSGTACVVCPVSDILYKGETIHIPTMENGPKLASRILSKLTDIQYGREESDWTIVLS
Description: as §1, §2, §3, §4

[3] = recombinant human BCAT1 […], 32° C., 100 μM leucine, 50 μM α-ketoglutarate, NADH fluorescence over 90 min, read-out: BCAT1 IC50

Structure (SMILES) | IC50 (MDA-MB231 cells; Homo sapiens, MDA-MB-231, 24 h) [nM] | IC50 [1] [nM] | IC50 [2, 3] [M] | IC50 ([2]; BCAT1 IC50 [M]) [M] | IC50 (MDA-MB231 cells) [nM]
COc1cc(C#N)c(Oc2ccccc2C)cc1-n1c(=O)cc(C(F)(F)F)[nH]c1=O (racemic) [Example 4, 4-[2,6-Dioxo-4-(trifluoromethyl)-3,6-dihydropyrimidin-1(2H)-yl]-5-methoxy-2-(2-methylphenoxy)benzonitrile (rac)] | > 30000 |  |  | 1.62e-07 | 
Cc1ccccc1Oc1cc(-n2c(=O)cc(S(C)(=O)=O)[nH]c2=O)c(F)cc1C#N [Example 75, 5-Fluoro-4-[4-(methanesulfonyl)-2,6-dioxo-3,6-dihydropyrimidin-1(2H)-yl]-2-(2-methylphenoxy)benzonitrile] |  | 16000 | 2.7e-06 |  | 
Cc1ccccc1Oc1cc(-n2c(=O)cc(S(=O)(=O)c3ccccc3)[nH]c2=O)c(F)cc1C#N [Example 74, 4-[4-(Benzenesulfonyl)-2,6-dioxo-3,6-dihydropyrimidin-1(2H)-yl]-5-fluoro-2-(2-methylphenoxy)benzonitrile] | > 30000 |  |  |  | 30000
COc1cc(C#N)c(Oc2ccccc2C)cc1-n1c(=O)cc(C2CC2)[nH]c1=O (racemic) [Example 23, 4-(4-Cyclopropyl-2,6-dioxo-3,6-dihydropyrimidin-1(2H)-yl)-5-methoxy-2-(2-methylphenoxy)benzonitrile (rac)] | 30000 |  | 1.8e-07 |  | > 30000
COc1cc(C#N)c(Oc2ccccc2C)cc1-n1c(=O)cc(C(F)(F)F)[nH]c1=O (single isomer, unassigned) [Example 6, 4-[2,6-Dioxo-4-(trifluoromethyl)-3,6-dihydropyrimidin-1 (2H)-yl]-5-methoxy-2-(2-methylphenoxy)benzonitrile (atrop 2)] |  |  |  | 6.25e-07 | > 30000
Cc1cccc(C)c1Oc1cc(-n2c(=O)cc(C(F)(F)c3ccccc3)[nH]c2=O)c(F)cc1C#N [Example 57, 4-{4-[Difluoro(phenyl)methyl]-2,6-dioxo-3,6-dihydropyrimidin-1(2H)-yl}-2-(2,6-dimethylphenoxy)-5-fluorobenzonitrile] |  | 5000 | 1.5e-06 |  | 
COc1cc(C#N)c(Oc2ccccc2C)cc1-n1c(=O)cc(-c2ccccc2)[nH]c1=O (single isomer, unassigned) [Example 44, 4-(2,6-Dioxo-4-phenyl-3,6-dihydropyrimidin-1(2H)-yl)-5-methoxy-2-(2-methylphenoxy)benzonitrile (atrop 2)] |  | 6500 | 5.5e-07 |  | 
N#Cc1cc(F)c(-n2c(=O)cc(C(F)(F)F)[nH]c2=O)cc1Oc1c(F)cccc1F [Example 63, 2-(2,6-Difluorophenoxy)-4-[2,6-dioxo-4-(trifluoromethyl)-3,6-dihydropyrimidin-1 (2H)-yl]-5-fluorobenzonitrile] | > 30000 |  |  |  | 
Cc1ccccc1Oc1cc(-n2c(=O)cc(C(F)(F)F)[nH]c2=O)c(O)cc1C#N (racemic) [Example 54, 4-[2,6-Dioxo-4-(trifluoromethyl)-3,6-dihydropyrimidin-1(2H)-yl]-5-hydroxy-2-(2-methylphenoxy)benzonitrile (rac)] |  | 15500 | 1.8e-06 |  | 
Cc1ccc(Oc2cc(-n3c(=O)cc(C(F)(F)F)[nH]c3=O)c(F)cc2C#N)c(C)c1 [Example 66, 2-(2,4-Dimethylphenoxy)-4-[2,6-dioxo-4-(trifluoromethyl)-3,6-dihydropyrimidin-1(2H)-yl]-5-fluorobenzonitrile] |  | 49000 | 6.7e-06 |  | 

Continued, in another order:

IC50 (MDA-MB231 cells; Homo sapiens, MDA-MB-231, 24 h) [nM] | IC50 [1] [nM] | IC50 [2, 3] [M] | Structure (SMILES) | IC50 ([2]; BCAT1 IC50 [M]) [M] | IC50 (MDA-MB231 cells) [nM]
> 30000 | 4000 | 7e-07 | COc1cc(C#N)c(Oc2ccccc2C)cc1-n1c(=O)cc(S(C)(=O)=O)[nH]c1=O (racemic) [Example 79, 4-[4-(Methanesulfonyl)-2,6-dioxo-3,6-dihydropyrimidin-1(2H)-yl]-5-methoxy-2-(2-methylphenoxy)benzonitrile (rac)] |  | 
 | 1600 | 7.5e-07 | Cc1ccccc1Oc1cc(-n2c(=O)cc(C(F)(F)c3ccccc3)[nH]c2=O)c(Cl)cc1C#N (racemic) [Example 53, 5-Chloro-4-{4-[difluoro(phenyl)methyl]-2,6-dioxo-3,6-dihydropyrimidin-1(2H)-yl}-2-(2-methylphenoxy)benzonitrile (rac)] |  | 
 | 3000 | 1.45e-07 | COc1cc(C#N)c(Oc2ccccc2C)cc1-n1c(=O)cc(Br)[nH]c1=O (single isomer, unassigned) [Example 21, 4-[4-Bromo-2,6-dioxo-3,6-dihydropyrimidin-1(2H)-yl]-5-methoxy-2-(2-methylphenoxy)benzonitrile (atrop 2)] |  | 
 | 2500 | 3e-07 | COc1cc(C#N)c(Oc2ccccc2C)cc1-n1c(=O)cc(S(C)(=O)=O)[nH]c1=O (single isomer, unassigned) [Example 80, 4-[4-(Methanesulfonyl)-2,6-dioxo-3,6-dihydropyrimidin-1(2H)-yl]-5-methoxy-2-(2-methylphenoxy)benzonitrile (atrop 1)] |  | 
 | 2600 | 2.97e-07 | N#Cc1cc(F)c(-n2c(=O)cc(C(F)(F)F)[nH]c2=O)cc1Oc1c(N)cccc1F [Example 64, 2-(2-Amino-6-fluorophenoxy)-4-[2,6-dioxo-4-(trifluoromethyl)-3,6-dihydropyrimidin-1(2H)-yl]-5-fluorobenzonitrile] |  | 
 | 2600 | 2e-07 | Cc1ccccc1Oc1cc(-n2c(=O)cc(C(F)(F)F)[nH]c2=O)c(Br)cc1C#N (racemic) [Example 18, 5-Bromo-4-[2,6-dioxo-4-(trifluoromethyl)-3,6-dihydropyrimidin-1(2H)-yl]-2-(2-methylphenoxy)benzonitrile (rac)] |  | 
 | 2170 | 2.7e-07 | Cc1ccccc1Oc1cc(-n2c(=O)cc(C(F)(F)Cl)[nH]c2=O)c(Cl)cc1C#N (racemic) [Example 26, 5-Chloro-4-{4-[chloro(difluoro)methyl]-2,6-dioxo-3,6-dihydropyrimidin-1(2H)-yl}-2-(2-methylphenoxy)benzonitrile (rac)] |  | 
> 30000 | 452 |  | COc1cc(C#N)c(Oc2ccccc2C)cc1-n1c(=O)cc(S(=O)(=O)c2ccccc2)[nH]c1=O (racemic) [Example 76, 4-[4-(Benzenesulfonyl)-2,6-dioxo-3,6-dihydropyrimidin-1(2H)-yl]-5-methoxy-2-(2-methylphenoxy)benzonitrile (rac)] |  | 20000
 | 600 | 1.45e-07 | COc1cc(C#N)c(Oc2ccccc2C)cc1-n1c(=O)cc(C(F)(F)c2ccccc2)[nH]c1=O (racemic) [Example 24, 4-{4-[Difluoro(phenyl)methyl]-2,6-dioxo-3,6-dihydropyrimidin-1(2H)-yl}-5-methoxy-2-(2-methylphenoxy)benzonitrile (rac)] |  | 
 | 1670 | 2.83e-07 | Cc1cccc(C)c1Oc1cc(-n2c(=O)cc(C(F)(F)F)[nH]c2=O)c(Cl)cc1C#N (racemic) [Example 38, 5-Chloro-2-(2,6-dimethylphenoxy)-4-(2,6-dioxo-4-(trifluoromethyl)-2,3-dihydropyrimidin-1(6H)-yl)benzonitrile (rac)] |  | 
